Results from patent EP4603105A1, “PHARMACEUTICAL COMPOSITION CONTAINING CYCLIC COMPOUND HAVING SELECTIVE KRAS INHIBITORY EFFECT AGAINST HRAS AND NRAS” (CHUGAI SEIYAKU KABUSHIKI KAISHA, priority 2022, dated 2024).
Read-outs that look alike come from different tables or passages of the source. Where a SMILES comes first, the peptide text is derived from it. Bridges are numbered along the chain shown (N, C = ends). [ ]: non-standard residue; d: D form. The star is where a group is joined. hPhe(3-Cl-4-CF3) = N[C@@H](CCc1ccc(C(F)(F)F)c(Cl)c1)C(=O)O; NPrPhe(4-CF3) = CCCN[C@@H](Cc1ccc(C(F)(F)F)cc1)C(=O)O; NMeGly(cPent) = CN[C@H](C(=O)O)C1CCCC1; Pro(4,4-F2) = O=C(O)[C@@H]1CC(F)(F)CN1; NMeD = CN[C@@H](CC(=O)O)C(=O)O; NMeL = CN[C@@H](CC(C)C)C(=O)O; Morpholide = C1CN(*)CCO1; NMeA = CN[C@@H](C)C(=O)O; Ac5c = NC1(C(=O)O)CCCC1; Aze = O=C(O)[C@@H]1CCN1; Ac3c = NC1(C(=O)O)CC1; Sar = CNCC(=O)O

Assays:
[1] = biological target: GDP-bound NRAS wild-type protein (Homo sapiens, UniProt P01111); assay: Binding to NRAS by surface plasmon resonance (SPR), KD and KD ratio to KRAS
GDP-bound NRAS wild-type protein, sequence (P01111 whole entry): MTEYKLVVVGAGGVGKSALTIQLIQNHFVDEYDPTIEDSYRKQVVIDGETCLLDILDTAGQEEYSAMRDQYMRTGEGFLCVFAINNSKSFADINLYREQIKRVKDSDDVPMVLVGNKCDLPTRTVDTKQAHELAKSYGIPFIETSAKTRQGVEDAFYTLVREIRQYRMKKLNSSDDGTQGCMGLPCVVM
Method in brief: (§1)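 Affinity is measured by surface plasmon resonance at 30°C against captured, GDP-loaded RAS carrying a biotinylated Avi tag. Compounds are titrated by single-cycle kinetics, and KD comes from a 1:1 fit.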

[2] = system: human lung cancer strain NCI-H441; type: cell-based
Method in brief: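 Readout: […] after the ATP-based reagent. Compound: serial dilutions in dimethyl sulfoxide.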

HRAS wild-type protein = HRAS wild-type protein (Homo sapiens, UniProt P01112); assay: Binding to HRAS by surface plasmon resonance (SPR), KD and KD ratio to KRAS
HRAS wild-type protein, sequence (P01112 whole entry): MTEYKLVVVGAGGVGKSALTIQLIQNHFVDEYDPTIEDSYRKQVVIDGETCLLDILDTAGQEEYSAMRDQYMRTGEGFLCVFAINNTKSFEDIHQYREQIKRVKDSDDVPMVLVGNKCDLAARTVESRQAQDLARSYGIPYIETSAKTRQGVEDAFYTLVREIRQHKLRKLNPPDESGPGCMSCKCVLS
Method in brief: as §1

[3] = ratio of the KD value with respect to GDP-bound NRAS wild-type protein to the KD value with respect to KRAS
[4] = ratio of the KD value with respect to HRAS wild-type protein to the KD value with respect to KRAS
[5] = ratio of KD for GDP-bound NRAS wild-type protein to KD for KRAS
[6] = ratio of KD for HRAS wild-type protein to KD for KRAS
[7] = ratio of KD value for GDP-bound NRAS wild-type protein to KD value for KRAS (SPR)
[8] = ratio of KD value for HRAS wild-type protein to KD value for KRAS (SPR)

SMILES | NRAS /KRAS [1, 3] | IC50 [2] [nM] | HRAS /KRAS (HRAS wild-type protein; [4]) | NRAS /KRAS [1, 5] | HRAS /KRAS (HRAS wild-type protein; [6]) | NRAS /KRAS [1, 7] | HRAS /KRAS (HRAS wild-type protein; [8]) | IC50 ([2]; NCI-H441 cells, 4 days, CellTiter-Glo, read-out: NCl-H441 IC50) [nM]
CCC[C@H]1C(=O)N[C@@H]([C@@H](C)CC)C(=O)N(C)CC(=O)N(C)[C@H]2C/C=C\CCN(C2=O)[C@@H](Cc2ccc(C)cc2)C(=O)N(C)CC(=O)N[C@@H](CCc2ccc(C(F)(F)F)c(Cl)c2)C(=O)N2C[C@H](OCC)C[C@H]2C(=O)NC2(CC(C)(C)C2)C(=O)N(C)[C@@H](CC(C)C)C(=O)N(C)[C@H](C(=O)N(C)C)CC(=O)N1C [PP2224] | A (a compound having 10 or more and less than 20 is denoted as A) | 15.4 | A (a compound having 10 or more and less than 20 is denoted as A) | – | – | – | – | –
CCO[C@@H]1C[C@H]2C(=O)NC3(CCC3)C(=O)N(C)[C@@H](C3CCCC3)C(=O)N(C)[C@H](C(=O)N(C)C)CC(=O)N(C)[C@@H](CC)C(=O)N[C@@H]([C@@H](C)CC)C(=O)N(C)CC(=O)N(C)[C@H]3CCCCN(C3=O)[C@@H](Cc3ccc(C(F)(F)F)cc3)C(=O)N(C)CC(=O)N[C@@H](CCc3ccc(C(F)(F)F)cc3F)C(=O)N2C1 [PP0885] | – | 11.5 | – | C (A compound having a KD ratio of 0.1 or more and less than 3 is denoted as C) | B (a compound having 3 or more and less than 10 is denoted as B) | – | – | –
CC[C@H](C)[C@@H]1NC(=O)[C@H](CC2CCC2)N(C)C(=O)C[C@@H](C(=O)N(C)C)N(C)C(=O)[C@H](C2CCCC2)N(C)C(=O)C2(CC(C)(C)C2)NC(=O)[C@@H]2CC(F)(F)CN2C(=O)[C@H](CCc2cc(F)c(C(F)(F)F)c(F)c2)NC(=O)CN(C)C(=O)[C@H](Cc2ccc(C(F)(F)F)cc2)N2CC/C=C\C[C@@H](C2=O)N(C)C(=O)CN(C)C1=O [PP1716] | – | 3.8 | – | – | – | AA (a compound having 20 or more is denoted as AA) | A (a compound having 10 or more and less than 20 is denoted as A) | –
CCO[C@@H]1C[C@H]2C(=O)NC3(CC(C)(C)C3)C(=O)N(C)[C@@H](C3CCCC3)C(=O)N(C)[C@H](C(=O)N(C)C)CC(=O)N(C)[C@@H](CC(C)C)C(=O)N[C@@H]([C@@H](C)CC)C(=O)N(C)CC(=O)N(C)[C@H]3C/C=C\CCN(C3=O)[C@@H](Cc3ccc(C(F)(F)F)cc3)C(=O)N(C)CC(=O)N[C@@H](CCc3ccc(C(F)(F)F)c(Cl)c3)C(=O)N2C1 [PP1751] | – | 2.2 | – | – | – | A (a compound having 10 or more and less than 20 is denoted as A) | A (a compound having 10 or more and less than 20 is denoted as A) | –
CC[C@H](C)[C@@H]1NC(=O)[C@H](CC(C)C)N(C)C(=O)C[C@@H](C(=O)N2CCOCC2)N(C)C(=O)[C@H](CC(F)(F)F)N(C)C(=O)C2(CCCC2)NC(=O)[C@@H]2CCCN2C(=O)[C@H](CCc2cc(F)c(C(F)(F)F)c(F)c2)NC(=O)CN(C)C(=O)[C@H](Cc2ccc(C(F)(F)F)cc2)N2CCCCC[C@@H](C2=O)N(C)C(=O)CN(C)C1=O [PP0506] | B (a compound having 3 or more and less than 10 is denoted as B) | 705 | B (a compound having 3 or more and less than 10 is denoted as B) | – | – | – | – | –
C#CCN1CC(=O)N(C)[C@H]2C/C=C\CCN(C2=O)[C@@H](Cc2ccc(C(F)(F)F)cc2)C(=O)N(C)CC(=O)N[C@@H](CCc2ccc(C(F)(F)F)c(OC)c2)C(=O)N2C[C@H](OCC)C[C@H]2C(=O)NC2(CC(C)(C)C2)C(=O)N(C)[C@@H](C2CCCC2)C(=O)N(C)[C@H](C(=O)N(C)C)CC(=O)N(C)[C@@H](CCC)C(=O)N[C@@H]([C@@H](C)CC)C1=O [PP2107] | A (a compound having 10 or more and less than 20 is denoted as A) | 7.8 | A (a compound having 10 or more and less than 20 is denoted as A) | – | – | – | – | –
CCCN1C(=O)[C@@H]2CCN2C(=O)CN(C)C(=O)[C@H]([C@@H](C)CC)NC(=O)[C@H](CC(C)C)N(C)C(=O)C[C@@H](C(=O)N(C)C)N(C)C(=O)[C@H](C2CCCC2)N(C)C(=O)C2(CCCC2)NC(=O)[C@@H]2CC(F)(F)CN2C(=O)[C@H](CCc2ccc(C(F)(F)F)c(Cl)c2)NC(=O)CN(C)C(=O)[C@@H]1Cc1ccc(C(F)(F)F)cc1 [PP0442] ([NMeL]I[Sar][Aze][NPrPhe(4-CF3)][Sar][hPhe(3-Cl-4-CF3)][Pro(4,4-F2)][Ac5c][NMeGly(cPent)][NMeD]-NMe2; lactam N-11) | C (A compound having a KD ratio of 0.1 or more and less than 3 is denoted as C) | 0.8 | C (A compound having a KD ratio of 0.1 or more and less than 3 is denoted as C) | – | – | – | – | –
CCO[C@@H]1C[C@H]2C(=O)NC3(CCCC3)C(=O)N(C)[C@@H](C3CCCC3)C(=O)N(C)[C@H](C(=O)N3CCOCC3)CC(=O)N(C)[C@@H](CC(C)C)C(=O)N[C@@H]([C@@H](C)CC)C(=O)N(C)CC(=O)N(C)[C@H]3CCCCN(C3=O)[C@@H](Cc3ccc(C(F)(F)F)cc3)C(=O)N(C)CC(=O)N[C@@H](CCc3cc(F)c(C(F)(F)F)c(F)c3)C(=O)N2C1 [PP0554] | B (a compound having 3 or more and less than 10 is denoted as B) | 1.6 | B (a compound having 3 or more and less than 10 is denoted as B) | – | – | – | – | –
CCO[C@@H]1C[C@H]2C(=O)NC3(CCC3)C(=O)N(C)[C@@H](C3CCCC3)C(=O)N(C)[C@H](C(=O)N(C)C)CC(=O)N(C)[C@@H](CC3CCCC3)C(=O)N[C@@H]([C@@H](C)CC)C(=O)N(C)CC(=O)N(C)[C@H]3C/C=C\CCN(C3=O)[C@@H](Cc3ccc(C)cc3)C(=O)N(C)CC(=O)N[C@@H](CCc3ccc(C4CC4)c(F)c3)C(=O)N2C1 [PP2683] | – | 63.3 | – | A (a compound having 10 or more and less than 20 is denoted as A) | A (a compound having 10 or more and less than 20 is denoted as A) | – | – | –
CCO[C@@H]1C[C@H]2C(=O)NC3(CC(C)(C)C3)C(=O)N(C)[C@@H](C3CCCC3)C(=O)N(C)[C@H](C(=O)N(C)C)CC(=O)N(C)[C@@H](CC(C)C)C(=O)N[C@@H]([C@@H](C)CC)C(=O)N(C)CC(=O)N(C)[C@H]3C/C=C\CCN(C3=O)[C@@H](Cc3ccc(C)c(F)c3)C(=O)N(C)CC(=O)N[C@@H](CCc3ccc(C(F)(F)F)c(OC)c3)C(=O)N2C1 [PP2689] | – | – | – | A (a compound having 10 or more and less than 20 is denoted as A) | B (a compound having 3 or more and less than 10 is denoted as B) | – | – | 6.2
CCC[C@H]1C(=O)N[C@@H]([C@@H](C)CC)C(=O)N(C)CC(=O)N(C)[C@H]2C/C=C\CCN(C2=O)[C@@H](Cc2ccc(C(F)(F)F)cc2)C(=O)N(C)CC(=O)N[C@@H](CCc2ccc(C(F)(F)F)c(CC)c2)C(=O)N2C[C@H](OCC)C[C@H]2C(=O)NC2(CC(C)(C)C2)C(=O)N(C)[C@@H](C2CCCC2)C(=O)N(C)[C@H](C(=O)N(C)C)CC(=O)N1C [PP2861] | – | 6.3 | – | A (a compound having 10 or more and less than 20 is denoted as A) | B (a compound having 3 or more and less than 10 is denoted as B) | – | – | –
CCCOC[C@H]1C(=O)N[C@@H]([C@@H](C)CC)C(=O)N(C2CC2)CC(=O)N(C)[C@H]2C/C=C\CCN(C2=O)[C@@H](Cc2ccc(C)cc2)C(=O)N(C)CC(=O)N[C@@H](CCc2ccc(C(F)(F)F)c(OC)c2)C(=O)N2C[C@H](OCC)C[C@H]2C(=O)N(C)C2(CCC2)C(=O)N(C)[C@@H](C2CCCC2)C(=O)N(C)[C@H](C(=O)N(C)C)CC(=O)N1C [PP2330] | A (a compound having 10 or more and less than 20 is denoted as A) | 5.5 | A (a compound having 10 or more and less than 20 is denoted as A) | – | – | – | – | –
CCC[C@H]1C(=O)N[C@@H]([C@@H](C)CC)C(=O)N(C2CC2)CC(=O)N(C)[C@H]2C/C=C\CCN(C2=O)[C@@H](Cc2ccc(C)cc2)C(=O)N(C)CC(=O)N[C@@H](CCc2ccc(C(F)(F)F)c(OC)c2)C(=O)N2C[C@H](OCC)C[C@H]2C(=O)N(C)C2(CCC2)C(=O)N(C)[C@@H](C2CCCC2)C(=O)N(C)[C@H](C(=O)N2CCCC2)CC(=O)N1C [PP3098] | – | 4.7 | – | A (a compound having 10 or more and less than 20 is denoted as A) | A (a compound having 10 or more and less than 20 is denoted as A) | – | – | –
CCCN1C(=O)[C@@H]2CCN2C(=O)[C@H](C)N(C)C(=O)[C@H]([C@@H](C)CC)NC(=O)[C@H](CC(C)C)N(C)C(=O)C[C@@H](C(=O)N2CCOCC2)N(C)C(=O)[C@H](C2CCCC2)N(C)C(=O)C2(CC2)NC(=O)[C@@H]2CCCN2C(=O)[C@H](CCc2ccc(C(F)(F)F)c(Cl)c2)NC(=O)CN(C)C(=O)[C@@H]1Cc1ccc(C(F)(F)F)cc1 [PP0224] ([NMeL]I[NMeA][Aze][NPrPhe(4-CF3)][Sar][hPhe(3-Cl-4-CF3)]P[Ac3c][NMeGly(cPent)][NMeD]-Morpholide; lactam N-11) | – | 2 | – | C (A compound having a KD ratio of 0.1 or more and less than 3 is denoted as C) | B (a compound having 3 or more and less than 10 is denoted as B) | – | – | –
